In patent publication US20230028539A1, “PHARMACEUTICAL COMPOSITION, COMPLEMENTARY KIT AND APPLICATION THEREOF” (SHANGHAI PHARMACEUTICALS HOLDING CO., LTD., priority 2019, published 2023):
Where two headings read alike, the source gives them in different places.

Assays:
[1] = tested on: 6-OHDA-induced unilateral damage PD model; assay: Apomorphine-induced contralateral circling test in 6-OHDA-induced rat Parkinson's disease model; format: in vivo, male Wistar rat; conditions: after 29 days of treatment, FIG. 3
Description: 3.1.2 The animals were injected intraperitoneally with APO (0.5 mg/kg, 2 mL/kg) 3 minutes before testing.
3.1.3 The animals were placed in a circular test box after dosing. Changes in animal behavior were observed and recorded by Ethovi si on video software, and the number of revolutions of each animal within 30 min was counted manually.
3.1.4 APO-induced circling behavior: The animal circled rightwards with the left hind limb as the fulcrum. One turn was counted as one revolution by taking the head of the rat as a reference. Animals with more than 180 revolutions within 30 min were qualified rat Parkinson's disease models.
3.2.1 140 animals were randomly selected, and intramuscularly injected with Zoletil at 30 mg/kg in combination with 3 mg/kg of xylazine hydrochloride for general anesthesia before the operation.
3.2.7 The injection of 6-OHDA was started 2 min after the needle reached the designated depth. […]
3.3.3 The animals were placed in a circular test box after dosing. Changes in animal behavior were observed and recorded by Ethovision video software, and the number of revolutions of each animal within 30 min was counted manually.
3.3.4 APO-induced circling behavior: The animal circled rightwards with the left hind limb as the fulcrum. One turn was counted as one revolution by taking the head of the rat as a reference. […]

[2] = tested on: MPTP-induced mouse Parkinson's disease model; assay: MPTP-induced mouse Parkinson's disease model, dopamine content in dorsal striatum by LC-MS; format: in vivo, male C57BL/6J mice
Description: Animals in control group were injected with an equal volume of […]. After 6 weeks, mice were euthanized and the dorsal striatum was separated after normal saline perfusion, weighed and preserved in a −80° C. freezer. The content of dopamine in dorsal striatal was determined by LC-MS. [table]

[3] = tested on: patients with early PD; conditions: 24 weeks, cited from earlier work
[4] = target: T1, MAO-B (Homo sapiens, UniProt P27338); conditions: cited from earlier work; for inhibitory strength to MAO-B than that to MAO-A: selectivity MAO-B over MAO-A
T1 sequence (P27338 1-520): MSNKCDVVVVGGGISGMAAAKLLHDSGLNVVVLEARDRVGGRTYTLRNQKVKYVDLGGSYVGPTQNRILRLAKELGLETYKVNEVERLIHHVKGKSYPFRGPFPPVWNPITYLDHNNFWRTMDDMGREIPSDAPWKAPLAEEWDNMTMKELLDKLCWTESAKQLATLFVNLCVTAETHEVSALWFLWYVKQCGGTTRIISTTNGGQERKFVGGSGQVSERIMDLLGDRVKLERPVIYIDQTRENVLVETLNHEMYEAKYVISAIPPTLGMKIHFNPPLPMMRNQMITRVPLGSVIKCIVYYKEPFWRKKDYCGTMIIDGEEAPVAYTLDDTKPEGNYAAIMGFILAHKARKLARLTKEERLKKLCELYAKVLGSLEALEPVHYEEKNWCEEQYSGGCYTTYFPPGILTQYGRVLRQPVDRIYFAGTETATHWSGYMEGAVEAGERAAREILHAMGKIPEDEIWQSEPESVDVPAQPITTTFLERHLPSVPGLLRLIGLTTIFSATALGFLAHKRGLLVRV

SMILES	reduction in the number of revolutions compared with that before treatment ([1]; G4, PPX 0.1 mpk P.O. QD) [%]	effect on dopamine reduction in the MPTP model (FIG. 1) ([2]; average dopamine concentration in mouse brain, all dose groups)	dopamine levels in dorsal striatum compared with modeling group G2 ([2]; compound B group (15 mg/kg i.p. QD 6 weeks))	elevation in the number of revolutions compared with that before treatment ([1]; G3, SAF 15 mpk P.O. QD) [%]	improvement of movement symptoms (total UPDRS score, LPDRS [sic]) ([3]; safinamide 100 mg/d in combination with DA receptor agonist)	improvement of movement symptoms (total UPDRS score, LPDRS [sic]) ([3]; safinamide 200 mg/d in combination with DA receptor agonist)	time after discontinuation until physiological function completely restored ([4]; after discontinuation) [h]	reversibility of MAO-B inhibition [4]	inhibitory strength to MAO-B than that to MAO-A [4] [fold]
CCCN[C@H]1CCc2nc(N)sc2C1 [Compound A, Pramipexole]	24	–	–	–	–	–	–	–	–
C[C@H](NCc1ccc(OCc2cccc(F)c2)cc1)C(N)=O [Compound B, Safinamide]	–	improvement effects	significantly higher	5	effective	no effect in improving movement symptoms	8	reversible	5000
C#CCN[C@@H]1CCc2ccccc21 [rasagiline]	–	–	–	–	–	–	–	irreversible	103
